Active and inactive are the calls of the source.
Tests used:
[1] = target: Eukaryotic translation initiation factor 4H (Homo sapiens, UniProt Q15056); assay: human eIF4H binding inhibitors, primary screen, translation initiation inhibitor project, biochemical, uHTS, fluorescence polarization (AID 2012)
[2] = target: T1, Intestinal-type alkaline phosphatase (Homo sapiens, UniProt P09923); assay: inhibition of human intestinal alkaline phosphatase – biochemical, dose response (AID 488876); assay type: functional
[3] = target: T2, Intestinal-type alkaline phosphatase (Mus musculus, UniProt P24822); assay: PubChem AID 488785; assay type: functional
[4] = target: T3, Alkaline phosphatase, tissue-nonspecific isozyme (Homo sapiens, UniProt P05186); assay: TNAP enzyme inhibition by screening hits, dose response, selectivity assay for mouse IAP inhibitor project, biochemical, human TNAP, uHTS hits (AID 488906); assay type: functional
T3 sequence (P05186 whole entry): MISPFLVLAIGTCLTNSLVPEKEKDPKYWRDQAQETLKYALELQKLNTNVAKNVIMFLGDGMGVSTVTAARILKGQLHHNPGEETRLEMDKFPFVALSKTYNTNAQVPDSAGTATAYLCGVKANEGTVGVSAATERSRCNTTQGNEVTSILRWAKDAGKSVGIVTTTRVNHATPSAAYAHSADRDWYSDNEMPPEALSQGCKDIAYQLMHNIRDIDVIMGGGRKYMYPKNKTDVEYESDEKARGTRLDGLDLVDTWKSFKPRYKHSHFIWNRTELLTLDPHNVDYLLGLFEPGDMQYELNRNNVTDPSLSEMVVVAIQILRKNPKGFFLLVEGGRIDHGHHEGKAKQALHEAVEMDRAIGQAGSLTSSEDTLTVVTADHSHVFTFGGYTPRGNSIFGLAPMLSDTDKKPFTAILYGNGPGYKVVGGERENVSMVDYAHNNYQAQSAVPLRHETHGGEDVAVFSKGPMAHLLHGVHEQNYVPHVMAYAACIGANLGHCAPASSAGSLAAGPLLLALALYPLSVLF

[5] = target: Polyadenylate-binding protein 1 (Homo sapiens, UniProt P11940); assay: PABP poly(A) RNA binding inhibitors, primary screen, biochemical, fluorescence polarization, uHTS (AID 2014)
[6] = target: Exodeoxyribonuclease V (Escherichia coli (strain K12), UniProt P04993+P07648+P08394); assay: E. coli RecBCD inhibitors, dose response, counter-screen for AddAB inhibitor project, absorbance, V66 E. coli, mutant T4 phage (AID 492957); assay type: functional, cell-based, Escherichia coli str. K-12 substr. MG1655
[7] = target: T4, High affinity choline transporter 1 (Homo sapiens, UniProt Q9GZV3); assay: CHT inhibitors, dose response, cell-based, 5-point CRC, membrane potential dye (AID 504840); assay type: functional
T4 sequence (Q9GZV3 whole entry): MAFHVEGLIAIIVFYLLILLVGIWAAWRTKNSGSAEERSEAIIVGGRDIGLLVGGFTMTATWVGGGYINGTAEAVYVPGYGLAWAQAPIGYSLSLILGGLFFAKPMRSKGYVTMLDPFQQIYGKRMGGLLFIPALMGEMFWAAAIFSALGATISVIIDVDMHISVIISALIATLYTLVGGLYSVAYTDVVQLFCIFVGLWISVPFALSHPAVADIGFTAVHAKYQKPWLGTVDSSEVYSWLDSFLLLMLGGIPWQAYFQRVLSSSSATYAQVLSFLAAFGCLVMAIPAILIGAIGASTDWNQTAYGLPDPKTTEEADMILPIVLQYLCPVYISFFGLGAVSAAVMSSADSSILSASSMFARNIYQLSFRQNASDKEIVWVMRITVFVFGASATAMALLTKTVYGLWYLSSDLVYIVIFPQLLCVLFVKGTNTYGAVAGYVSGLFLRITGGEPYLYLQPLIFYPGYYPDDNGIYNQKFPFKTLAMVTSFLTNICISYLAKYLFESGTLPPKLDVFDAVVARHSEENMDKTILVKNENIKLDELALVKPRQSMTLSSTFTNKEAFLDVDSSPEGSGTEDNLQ

[8] = Counterscreen for AddAB inhibitors: absorbance-based bacterial cell-based high throughput dose response assay for inhibitors of bacterial viability. [Related pubchem assays (depositor defined):AID435030, AID449728, AID449731, AID488942, AID488955, AID488956]; assay type: functional
[9] = target: Trypsin (Sus scrofa, UniProt P00761); assay: porcine trypsin inhibitors, dose response, selectivity assay for Rce1 protease inhibitor project, biochemical, quenched peptide fluorescence, cherry-pick (AID 488789)
[10] = target: CAAX prenyl protease 1 (Saccharomyces cerevisiae S288c, UniProt P47154); assay: Ste24 protease inhibitors, dose response, biochemical, S. cerevisiae, plate reader, cherry-pick (AID 488815)
[11] = target: T1, Intestinal-type alkaline phosphatase; assay: human IAP activators, dose response, biochemical, luminescent, uHTS hits, set 2 (AID 488817); assay type: functional;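 note: potency of activators that raise enzyme activity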
[12] = target: T2, Intestinal-type alkaline phosphatase; assay: PubChem AID 488875; assay type: functional
[13] = target: T5, Short transient receptor potential channel 4 (Mus musculus, UniProt Q9QUQ5); assay: mouse TRPC4 channel inhibitors, dose response, cell-based, HEK293 TRPC4/mu-opioid, Fluo-4 calcium (AID 434942); assay type: functional;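 note: potency of inhibitors blocking the TRPC4 calcium response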
T5 sequence (Q9QUQ5 whole entry): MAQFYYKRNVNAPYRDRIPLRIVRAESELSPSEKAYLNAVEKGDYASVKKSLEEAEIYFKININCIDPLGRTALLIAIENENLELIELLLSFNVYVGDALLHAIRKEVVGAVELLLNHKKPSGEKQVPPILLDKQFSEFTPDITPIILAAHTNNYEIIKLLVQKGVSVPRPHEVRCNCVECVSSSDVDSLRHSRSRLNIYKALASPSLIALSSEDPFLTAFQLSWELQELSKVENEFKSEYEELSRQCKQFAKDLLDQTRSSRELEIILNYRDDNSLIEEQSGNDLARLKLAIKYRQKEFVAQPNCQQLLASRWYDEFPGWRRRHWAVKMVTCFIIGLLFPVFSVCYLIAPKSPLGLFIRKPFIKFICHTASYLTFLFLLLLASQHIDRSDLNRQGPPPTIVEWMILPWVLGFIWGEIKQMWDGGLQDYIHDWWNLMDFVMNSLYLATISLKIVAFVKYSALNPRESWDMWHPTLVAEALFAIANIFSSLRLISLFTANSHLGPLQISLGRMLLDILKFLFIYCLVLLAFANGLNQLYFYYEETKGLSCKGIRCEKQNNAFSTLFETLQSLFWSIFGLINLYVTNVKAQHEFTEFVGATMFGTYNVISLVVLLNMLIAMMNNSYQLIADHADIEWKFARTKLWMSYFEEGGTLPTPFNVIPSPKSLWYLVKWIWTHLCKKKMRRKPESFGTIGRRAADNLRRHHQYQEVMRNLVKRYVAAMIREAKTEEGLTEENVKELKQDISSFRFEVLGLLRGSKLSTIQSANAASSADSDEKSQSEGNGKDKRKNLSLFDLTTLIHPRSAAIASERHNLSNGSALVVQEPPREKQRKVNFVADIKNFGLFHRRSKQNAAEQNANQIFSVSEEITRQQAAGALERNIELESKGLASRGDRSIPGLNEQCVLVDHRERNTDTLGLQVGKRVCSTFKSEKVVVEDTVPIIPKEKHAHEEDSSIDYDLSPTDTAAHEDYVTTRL

[14] = target: T3, Alkaline phosphatase, tissue-nonspecific isozyme; assay: TNAP enzyme activators, dose response, selectivity assay for human IAP activator project, biochemical, TNAP isozyme, human IAP uHTS hits (AID 488886); assay type: functional;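 note: potency of compounds raising TNAP activity as a selectivity check on IAP activators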
[15] = target: T1, Intestinal-type alkaline phosphatase; assay: human intestinal alkaline phosphatase activators, dose response, biochemical, luminescence, uHTS hits (AID 463120); assay type: functional
[16] = target: Sphingosine 1-phosphate receptor 2 (Homo sapiens, UniProt O95136); assay: Late stage counterscreen assay for S1P4 antagonists: Fluorescence dose response cell-based screening assay for antagonists of the Sphingosine 1-Phosphate Receptor 2 (S1P2). [Related pubchem assays (depositor defined):AID1510, AID1524, AID1692, AID1853, AID2332, AID489009, AID489017]; assay type: functional
[17] = target: Sphingosine 1-phosphate receptor 1 (Homo sapiens, UniProt P21453); assay: Late stage counterscreen assay for S1P4 antagonists: Fluorescence dose response cell-based screening assay for antagonists of the Sphingosine 1-Phosphate Receptor 1 (S1P1). [Related pubchem assays (depositor defined):AID1510, AID1524, AID1692, AID1853, AID2332, AID489009, AID489017]; assay type: functional
[18] = target: Sphingosine 1-phosphate receptor 3 (Homo sapiens, UniProt Q99500); assay: Late stage counterscreen assay for S1P4 antagonists: Fluorescence dose response cell-based screening assay for antagonists of the Sphingosine 1-Phosphate Receptor 3 (S1P3). [Related pubchem assays (depositor defined):AID1510, AID1524, AID1692, AID1853, AID2332, AID489009, AID489017]; assay type: functional
[19] = target: Sphingosine 1-phosphate receptor 5 (Homo sapiens, UniProt Q9H228); assay: Late stage counterscreen assay for S1P4 antagonists: Fluorescence dose response cell-based screening assay for antagonists of the Sphingosine 1-Phosphate Receptor 5 (S1P5). [Related pubchem assays (depositor defined):AID1510, AID1524, AID1692, AID1853, AID2332, AID489009, AID489017]; assay type: functional
[20] = target: T6, Delta-type opioid receptor (Homo sapiens, UniProt P41143); assay: HTS Image-Based Screen for Agonists of the DOR Receptor. [Related pubchem assays (depositor defined):AID1777, AID1786, AID2133]; assay type: functional
[21] = target: Mu-type opioid receptor (Homo sapiens, UniProt P35372); assay: HTS Image-Based Screen for Agonists of the MOR Receptor. [Related pubchem assays (depositor defined):AID1777, AID1785, AID1786, AID2133]; assay type: functional;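 note: imaging of beta-arrestin GFP recruitment into spots after receptor activation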
[22] = target: Paired box protein Pax-8 (Homo sapiens, UniProt Q06710); assay: inhibitors of PAX8-driven TPO luciferase reporter, dose response, RMG-I cells, cherry-pick (AID 687027); assay type: functional, cell-based;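 note: luciferase reporter driven by Pax8 target thyroperoxidase promoter measured by SteadyGlo luminescence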
[23] = target: T7, Kappa-type opioid receptor (Homo sapiens, UniProt P41145); assay type: functional
[24] = target: T6, Delta-type opioid receptor; assay: HTS Image-Based Screen for Antagonists of the DOR Receptor. [Related pubchem assays (depositor defined):AID1777, AID1785, AID1786, AID2133]; assay type: functional
[25] = target: Beta-galactosidase (Escherichia coli, UniProt Q8VNN2); assay type: functional
[26] = target: T8, Streptokinase A (Streptococcus pyogenes serotype M1, UniProt P10520); assay: S. pyogenes streptokinase expression inhibitors, potency, dose response, plasminogen activation absorbance, OD405 (AID 1914); assay type: functional, Streptococcus pyogenes M1 GAS;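 note: secreted streptokinase activity via plasminogen activation per viability signal from cell pellet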
T8 sequence (P10520 whole entry): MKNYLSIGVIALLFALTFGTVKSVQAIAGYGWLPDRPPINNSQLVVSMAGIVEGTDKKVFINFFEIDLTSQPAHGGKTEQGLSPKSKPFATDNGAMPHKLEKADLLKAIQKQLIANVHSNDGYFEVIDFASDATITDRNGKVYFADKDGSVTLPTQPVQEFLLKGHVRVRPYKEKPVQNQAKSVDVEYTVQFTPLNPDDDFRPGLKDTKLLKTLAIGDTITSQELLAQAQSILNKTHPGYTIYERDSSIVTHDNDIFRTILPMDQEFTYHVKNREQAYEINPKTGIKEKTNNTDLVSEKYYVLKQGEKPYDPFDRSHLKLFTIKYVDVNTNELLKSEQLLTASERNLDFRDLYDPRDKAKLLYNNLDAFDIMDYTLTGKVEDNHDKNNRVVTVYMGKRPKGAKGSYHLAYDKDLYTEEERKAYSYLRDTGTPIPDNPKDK

[27] = target: T7, Kappa-type opioid receptor; assay type: functional; remark: listed apart in the source

T1 sequence (P09923 whole entry): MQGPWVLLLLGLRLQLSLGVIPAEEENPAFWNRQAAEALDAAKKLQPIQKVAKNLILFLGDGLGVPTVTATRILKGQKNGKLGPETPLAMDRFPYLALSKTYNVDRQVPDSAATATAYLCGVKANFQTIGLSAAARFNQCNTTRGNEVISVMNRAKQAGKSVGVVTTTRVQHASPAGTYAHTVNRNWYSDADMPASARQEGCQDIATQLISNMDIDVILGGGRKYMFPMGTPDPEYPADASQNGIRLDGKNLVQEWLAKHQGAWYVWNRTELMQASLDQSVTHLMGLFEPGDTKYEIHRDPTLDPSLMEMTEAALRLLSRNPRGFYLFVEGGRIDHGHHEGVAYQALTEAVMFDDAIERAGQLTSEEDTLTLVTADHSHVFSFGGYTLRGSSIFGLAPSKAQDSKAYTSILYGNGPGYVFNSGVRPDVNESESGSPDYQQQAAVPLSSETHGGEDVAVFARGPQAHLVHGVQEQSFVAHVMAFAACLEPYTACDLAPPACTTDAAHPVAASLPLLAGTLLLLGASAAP
T2 sequence (P24822 whole entry): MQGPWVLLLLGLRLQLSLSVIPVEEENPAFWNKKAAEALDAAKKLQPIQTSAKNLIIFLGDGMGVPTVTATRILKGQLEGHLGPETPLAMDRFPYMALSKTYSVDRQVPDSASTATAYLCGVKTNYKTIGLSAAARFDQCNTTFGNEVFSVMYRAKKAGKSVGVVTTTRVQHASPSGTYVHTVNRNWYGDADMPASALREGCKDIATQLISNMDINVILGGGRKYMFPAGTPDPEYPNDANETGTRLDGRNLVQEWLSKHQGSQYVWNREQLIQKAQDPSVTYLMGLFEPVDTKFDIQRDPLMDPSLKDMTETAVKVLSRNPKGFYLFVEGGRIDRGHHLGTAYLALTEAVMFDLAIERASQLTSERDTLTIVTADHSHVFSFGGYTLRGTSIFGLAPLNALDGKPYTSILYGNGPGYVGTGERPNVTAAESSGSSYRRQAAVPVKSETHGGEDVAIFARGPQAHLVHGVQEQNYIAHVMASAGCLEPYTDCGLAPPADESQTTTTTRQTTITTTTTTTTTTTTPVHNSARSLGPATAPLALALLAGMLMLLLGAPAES
T7 sequence (P41145 whole entry): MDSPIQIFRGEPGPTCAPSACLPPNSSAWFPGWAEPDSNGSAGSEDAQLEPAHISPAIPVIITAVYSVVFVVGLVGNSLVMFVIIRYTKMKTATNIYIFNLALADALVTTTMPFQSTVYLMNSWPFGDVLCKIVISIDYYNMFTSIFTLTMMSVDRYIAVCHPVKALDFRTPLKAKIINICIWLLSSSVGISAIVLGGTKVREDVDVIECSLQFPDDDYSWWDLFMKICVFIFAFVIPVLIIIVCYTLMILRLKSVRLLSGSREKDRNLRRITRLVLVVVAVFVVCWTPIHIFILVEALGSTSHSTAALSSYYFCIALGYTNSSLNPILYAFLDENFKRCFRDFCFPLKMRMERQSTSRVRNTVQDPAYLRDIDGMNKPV
T6 sequence (P41143 whole entry): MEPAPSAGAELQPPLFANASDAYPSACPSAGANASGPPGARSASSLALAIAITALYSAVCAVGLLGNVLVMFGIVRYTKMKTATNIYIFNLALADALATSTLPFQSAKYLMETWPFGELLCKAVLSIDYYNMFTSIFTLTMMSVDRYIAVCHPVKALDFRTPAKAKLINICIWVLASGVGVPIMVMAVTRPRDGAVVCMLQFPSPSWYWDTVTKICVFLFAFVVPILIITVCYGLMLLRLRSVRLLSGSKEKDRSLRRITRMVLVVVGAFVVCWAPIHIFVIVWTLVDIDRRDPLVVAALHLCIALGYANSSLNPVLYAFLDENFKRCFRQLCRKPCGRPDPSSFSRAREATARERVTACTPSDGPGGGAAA
Sphingosine 1-phosphate receptor 2, sequence (O95136 whole entry): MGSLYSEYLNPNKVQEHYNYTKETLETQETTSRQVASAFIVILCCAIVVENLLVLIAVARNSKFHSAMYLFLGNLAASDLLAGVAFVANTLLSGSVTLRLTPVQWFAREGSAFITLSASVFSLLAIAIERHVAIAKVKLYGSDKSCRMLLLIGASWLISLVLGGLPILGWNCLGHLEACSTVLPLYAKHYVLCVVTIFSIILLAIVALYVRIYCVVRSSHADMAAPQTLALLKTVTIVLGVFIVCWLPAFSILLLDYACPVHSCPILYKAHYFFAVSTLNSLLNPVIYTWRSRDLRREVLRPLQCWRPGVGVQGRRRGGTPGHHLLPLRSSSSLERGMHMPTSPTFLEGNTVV
Beta-galactosidase, sequence (Q8VNN2 whole entry): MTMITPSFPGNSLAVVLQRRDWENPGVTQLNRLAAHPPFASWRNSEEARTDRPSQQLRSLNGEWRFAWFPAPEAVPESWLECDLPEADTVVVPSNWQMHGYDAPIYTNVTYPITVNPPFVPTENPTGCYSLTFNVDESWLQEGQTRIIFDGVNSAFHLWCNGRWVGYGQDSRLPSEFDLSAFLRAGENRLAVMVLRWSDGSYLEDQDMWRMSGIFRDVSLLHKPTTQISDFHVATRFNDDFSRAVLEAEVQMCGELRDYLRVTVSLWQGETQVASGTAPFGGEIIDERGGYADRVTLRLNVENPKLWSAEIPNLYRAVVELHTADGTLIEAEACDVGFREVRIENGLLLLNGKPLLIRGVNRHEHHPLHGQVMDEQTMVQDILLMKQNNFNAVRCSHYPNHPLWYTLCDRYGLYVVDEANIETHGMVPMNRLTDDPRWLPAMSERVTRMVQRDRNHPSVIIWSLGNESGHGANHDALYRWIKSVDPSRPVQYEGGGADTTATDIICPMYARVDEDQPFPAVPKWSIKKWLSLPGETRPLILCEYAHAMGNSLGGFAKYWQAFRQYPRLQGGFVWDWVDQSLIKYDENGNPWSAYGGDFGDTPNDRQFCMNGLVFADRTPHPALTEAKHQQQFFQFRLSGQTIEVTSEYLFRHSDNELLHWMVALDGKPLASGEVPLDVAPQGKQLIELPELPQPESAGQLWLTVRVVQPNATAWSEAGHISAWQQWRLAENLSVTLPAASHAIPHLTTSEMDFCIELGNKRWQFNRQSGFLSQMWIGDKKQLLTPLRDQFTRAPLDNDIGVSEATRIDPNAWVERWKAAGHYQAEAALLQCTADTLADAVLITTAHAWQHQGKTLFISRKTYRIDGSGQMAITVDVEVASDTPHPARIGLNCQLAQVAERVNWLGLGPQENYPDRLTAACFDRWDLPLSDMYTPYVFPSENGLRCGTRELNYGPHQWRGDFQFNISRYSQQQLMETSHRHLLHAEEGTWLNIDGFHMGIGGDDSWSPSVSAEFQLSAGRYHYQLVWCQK
Sphingosine 1-phosphate receptor 5, sequence (Q9H228 whole entry): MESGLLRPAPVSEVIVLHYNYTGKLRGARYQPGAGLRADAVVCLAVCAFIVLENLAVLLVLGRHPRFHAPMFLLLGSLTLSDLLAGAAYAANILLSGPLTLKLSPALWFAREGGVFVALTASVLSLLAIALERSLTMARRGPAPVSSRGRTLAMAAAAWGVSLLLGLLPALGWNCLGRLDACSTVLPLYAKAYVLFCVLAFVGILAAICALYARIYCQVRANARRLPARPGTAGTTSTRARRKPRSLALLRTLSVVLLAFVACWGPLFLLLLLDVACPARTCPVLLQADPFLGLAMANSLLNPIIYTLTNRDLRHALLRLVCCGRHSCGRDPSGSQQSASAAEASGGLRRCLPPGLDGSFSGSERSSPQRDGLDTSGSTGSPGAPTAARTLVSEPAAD
Sphingosine 1-phosphate receptor 3, sequence (Q99500 whole entry): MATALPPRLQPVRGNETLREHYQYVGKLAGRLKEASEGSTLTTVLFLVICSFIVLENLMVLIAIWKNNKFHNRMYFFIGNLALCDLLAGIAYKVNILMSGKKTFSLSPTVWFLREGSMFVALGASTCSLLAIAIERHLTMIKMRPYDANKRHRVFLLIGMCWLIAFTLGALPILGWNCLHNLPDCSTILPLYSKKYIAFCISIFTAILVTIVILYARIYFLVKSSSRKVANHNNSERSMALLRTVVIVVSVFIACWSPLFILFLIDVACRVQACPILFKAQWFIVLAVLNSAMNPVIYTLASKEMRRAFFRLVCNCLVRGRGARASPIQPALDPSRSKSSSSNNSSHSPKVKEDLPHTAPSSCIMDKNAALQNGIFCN
Sphingosine 1-phosphate receptor 1, sequence (P21453 whole entry): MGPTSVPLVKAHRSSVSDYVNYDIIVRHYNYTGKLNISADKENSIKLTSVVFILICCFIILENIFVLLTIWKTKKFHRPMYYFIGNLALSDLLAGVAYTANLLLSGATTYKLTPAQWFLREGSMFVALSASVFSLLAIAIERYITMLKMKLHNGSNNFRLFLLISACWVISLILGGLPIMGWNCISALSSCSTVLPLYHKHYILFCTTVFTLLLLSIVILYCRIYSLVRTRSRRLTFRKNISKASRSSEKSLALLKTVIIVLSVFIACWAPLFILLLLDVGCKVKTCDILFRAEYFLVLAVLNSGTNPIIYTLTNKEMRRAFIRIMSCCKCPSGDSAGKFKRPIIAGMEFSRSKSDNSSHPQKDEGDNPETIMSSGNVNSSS
Trypsin, sequence (P00761 whole entry): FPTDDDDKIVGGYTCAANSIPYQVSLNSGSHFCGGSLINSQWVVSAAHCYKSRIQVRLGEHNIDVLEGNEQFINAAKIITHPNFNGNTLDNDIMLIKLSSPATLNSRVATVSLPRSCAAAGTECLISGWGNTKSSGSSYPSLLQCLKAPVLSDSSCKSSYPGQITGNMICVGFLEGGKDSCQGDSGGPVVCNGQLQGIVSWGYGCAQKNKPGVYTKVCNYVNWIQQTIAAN

COc1cc(OC)c2c(c1O)OC(c1ccccc1)CC2=O (configuration not stated)
IC50 [1]: 48.6 µM (active)
IC50 [2]: > 100 µM (inactive)
IC50 [3]: 21.8 µM (active)
IC50 [4]: > 100 µM (inactive)
IC50 [5]: 91.1 µM (active)

Fc1ccc(Nc2nnc(C(F)(F)F)s2)cc1Cl
IC50 [6]: > 39.5 µM (inactive)
IC50 [7]: 11 µM (active)
IC50 [8]: 96.8 µM (inactive)

CCN(CC)CCCNC(=O)CCc1c(C)n(CC)c2cc(-c3ccccc3OC)nn2c1=O
AC50 [9]: 13.1 µM (active)
AC50 [10]: 6.24 µM (active)

CCOc1ccccc1CN1CCC(n2nccc2NC(=O)CCc2ccccc2)CC1
EC50 [11]: 80.1 µM (active)
EC50 [12]: 80.6 µM (active)
EC50 [13]: 473 nM (active)
EC50 [14]: 74.4 µM (active)
EC50 [15]: 59.9 µM (active)

Cc1cccc(C)c1NC(=O)c1ccc(-c2cccc(Cl)c2)o1
IC50 [16]: > 25 µM (inactive)
IC50 [17]: > 25 µM (inactive)
IC50 [18]: > 25 µM (inactive)
IC50 [19]: > 25 µM (inactive)

O=c1nc(-c2ccccn2)[nH]c2sc(-c3ccccc3)cc12
EC50 [20]: > 32 µM (inactive)
EC50 [21]: > 32 µM (inactive)
AC50 [22]: 14 µM (active)
IC50 [23]: > 32 µM
IC50 [24]: > 32 µM (inactive)
EC50 [25]: > 31.5 µM (inactive)
EC50 [26]: > 150 µM (not active)
IC50 [27]: 1.79 µM (active)

From ChEMBL document CHEMBL1201862, “PubChem BioAssay data set” (2004)
